Reference: patent US20240115645A1, “DRUG FOR TREATING UROLITHIASIS-RELATED DISEASE, AND PREPARATION METHOD THEREFOR” (HONG ZHANG, priority 2021, published 2024)

Key:
SD rats [1] = assay: Kidney lesions under HE microscope in rat urolithiasis model (1% ethylene glycol + 2% ammonium chloride); format: in vivo; design: key to Renal tubule dilation lesions / Renal interstitial inflammatory cell infiltration / Calcium oxalate crystal aggregation: No lesion was represented by −; mild lesion was +; lesion was ++; significant lesion was +++; details: potassium sodium hydrogen citrate group
Excerpt: (§1) II. Experimental example of pharmacological activity • 1. Preparation of test samples • (1) High-dose group test sample: the water-extracted, 0-25% ethanol gradient eluent by polyamide column prepared in Preparation Example 5 was concentrated and dried to obtain the active ingredient extract. A solution with a density of about 1.2 g/ml was formulated, and the concentration of the effective substance measured by the pharmacopoeia standard and the absorbance method (using rutin as a standard substance to make a standard curve) is about 130.4 mg/ml. • (2) Medium-dose group test sample: the high-dose group sample was diluted once to obtain the middle-dose group test sample. • (3) Low-dose group test sample: the middle-dose group sample was dilute once to obtain the low-dose group test sample. • (4) Positive control group test sample: potassium sodium hydrogen citrate aqueous solution with a concentration of 100 mg/ml, 3 ml per day, equivalent to 300 mg/d. • 2. Animal experiments • 2.1. Experimental animals and feeding conditions
36 male SD rats of SPF grade, 6-8 weeks old, 200-250 g. • 2.2.3 Model preparation
SD rats were fed adaptively for 7 days, and all groups (except the normal group) were administered 1% ethylene glycol (by drinking water)+2% ammonium chloride (by intragastric administration) 2 ml/rat to establish a model for 28 consecutive days. • 2.2.4 Experimental grouping and processing
36 male SD rats were randomly divided into 6 groups according to body weight, 6 rats in each group. These are normal group, model group, potassium sodium hydrogen citrate group, traditional Chinese medicine extract (low, medium, high) dose group. During the modeling process, 3 ml of the drug was administered by intragastric administration every day, and the drug included the positive control drug and the purified part through the polyamide column. The animals were euthanized after 4 weeks. • 2.2.5 Kidney
The kidney tissues were peeled off in vivo, the kidney on one side was stored in a cryopreservation tube at −80° C. for tissue homogenate to detect Ca2+ concentration, and the kit operation steps were the same as above; the […] kidney on the other side was fixed in formalin solution for tissue sectioning to perform HE staining. • (1) The steps for making paraffin sections were as follows:
(1) fixation, (2) trimming, (3) dehydration, (4) transparency, (5) wax immersion, (6) embedding, (7) slicing, (8) baking slices, (9) preservation: packed in boxes and stored at room temperature. • (2) HE staining steps were as follows:
(1) dewaxing and rehydration, (2) dyeing, (3) dehydration, transparency, mounting,
(4) staining results: the nucleus was blue, the cytoplasm was pink, and the red blood cells were bright red. • 3. Test results • 3.1. Positive test results for calcium oxalate crystals in rat urine
The results consisted of three parts: calcium oxalate crystal aggregation, renal tubule dilation lesions, and chronic renal interstitial inflammatory cell infiltration.

SD rats [2] = assay: Ca2+ concentration in serum, urine and kidney tissue of urolithiasis model rats; format: in vivo, rat; details: potassium sodium hydrogen citrate drug group, 300 mg/d
Excerpt: as §1
(§2) 36 male SD rats of SPF grade, 6-8 weeks old, 200-250 g. • 2.2.3 Model preparation […]

SD rats [3] = assay: Serum CRE and BUN levels of urolithiasis model rats; format: in vivo, rat; details: all groups, 4 weeks
Excerpt: as §1, §2

[4] = 100 mg/ml, 3 ml per day (300 mg/d) intragastric, 4 weeks

## O.O=C([O-])CC(O)(CC(=O)[O-])C(=O)O.O=C([O-])CC(O)(CC(=O)[O-])C(=O)O.O=C([O-])CC(O)(CC(=O)[O-])C(=O)O.O=C([O-])CC(O)(CC(=O)[O-])C(=O)[O-].O=C([O-])CC(O)(CC(=O)[O-])C(=O)[O-].[K+].[K+].[K+].[K+].[K+].[K+].[Na+].[Na+].[Na+].[Na+].[Na+].[Na+] [potassium sodium hydrogen citrate]
SD rats [1]; [4]
  Calcium oxalate crystal aggregation: ++
  Renal interstitial inflammatory cell infiltration: +
  Renal tubule dilation lesions: ++
SD rats [1]; 300 mg/d
  brownish yellow calcium oxalate crystals under the HE microscope, compared with the model group: did not decrease significantly
  inflammatory cell infiltration in the renal interstitium under the HE microscope: occasionally seen
  renal tubule dilatation under the HE microscope, compared with the model group: improved
SD rats [2]
  Ca2+ concentration in kidney tissue, difference compared with the model group and the normal group: very significant difference (P<0.01)
  Ca2+ concentration in kidney tissue, rank among groups: highest concentration
SD rats [3]
  BUN levels in serum, order of groups from high to low: model group>low dose treatment group>potassium sodium hydrogen citrate drug group>medium dose treatment group>high dose treatment group>normal group
  CRE levels in serum, order of groups from high to low: model group>medium dose treatment group>potassium sodium hydrogen citrate drug group>low dose treatment group>high dose treatment group>normal group
